# Measurements: publication PMC7397056, “Design, Facile Synthesis and Characterization of Dichloro Substituted Chalcones and Dihydropyrazole Derivatives for Their Antifungal, Antitubercular and Antiproliferative Activities” (Molecules, 2020)
# Tests used:
# [1] = test system: Mycobacterium tuberculosis H37Rv; test: Antitubercular activity, broth dilution assay (MIC); type: cell-based; conditions: for MIC: Mycobacterium tuberculosis, H37RV, 504 h, Middlebrook 7H9 broth, 37 °C, 21 days; for fold more antitubercular activity than the chalcones 14 and 16: 29 vs 14, 31 vs 16
# [2] = Cytotoxic activity on normal cells, MTT assay; type: cell-based
# Procedure: (§1) The antiproliferative activity of the compounds was determined their IC50 values. Methotrexate (Mtx; positive control) was used as a reference standard for comparing the antiproliferative activity of the target compounds. The MTT (3-(4,5-dimethylthiazol-2-yl)-2,5-diphenyl tetrazolium bromide) assay was based on the reduction of the soluble MTT (0.5 mg mL^−1, 100 µL) into a blue-purple formazan product, mainly by the activity of mitochondrial reductase enzymes inside the living cells. The prostate cancer cell lines, DU-145 cells, were cultured in Dulbecco’s Modified Eagle Medium (DMEM) media at 37 °C and humidified at 5% CO2. Stock solutions of the test compounds (17–46) were prepared in 0.1% DMSO followed by dilution with sterile water to obtain the desired final concentrations. Briefly, the cells were placed on 96-well plates at 100 µL total volume with the density of 1 × 10^4 cells per well and were allowed to adhere for 24 h. Then the medium was replaced with fresh media containing different dilutions of the test compounds and incubated for additional 48 h at 37 °C in DMEM with 10% fetal bovine serum (FBS) medium. Subsequently, the medium was replaced with 90 μL of fresh DMEM without FBS. The above wells were treated with 10 μL of MTT reagent (5 mg/mL of stock solution in DMEM without FBS) and incubated at 37 °C for 3–4 h. The formed blue formazan crystals were dissolved in 200 μL of DMSO. The optical density was determined at 570 nm using a micro plate reader. The assay was performed in triplicate for three independent experiments. The same experimentation was also done to confirm that the DMSO (negative control) had no effect in the study. The results had good reproducibility between replicate wells with standard errors below 10%. The antiproliferative activity results measured as IC50 values in µg/mL were converted and expressed in µM. Additionally, the cytotoxic activity of the compounds was also measured employing the same protocol discussed above to assess their toxicity on normal human cell lines (L02).
# [3] = test system: Candida tropicalis (ATCC-1369); test: Antifungal activity, serial tube dilution method (MIC); conditions: for MIC: Candida tropicalis, ATCC1369, 18 h, read-out: Antifungal activity MIC, C. tropicalis, serial tube dilution, 37 °C, 18 h, average of three
# [4] = test system: Aspergillus niger (ATCC-6275); test: as above; conditions: for MIC: Aspergillus niger, ATCC6275, 18 h, read-out: Antifungal activity MIC, A. niger, serial tube dilution, 37 °C, 18 h, average of three
# [5] = test system: prostate cancer cell lines (DU-145); test: Antiproliferative activity, MTT assay; type: cell-based; conditions: Homo sapiens, 48 h, mean ± SD (n = 3)
# Procedure: as §1
# [6] = test system: normal human cell lines (L02); test: Cytotoxic activity on normal cells, MTT assay; type: cell-based; conditions: normal human cell line L02
# Procedure: as §1
# [7] = L02 cells (normal human cell line)
Compound,MIC [1] [µM],fold better activity than the standard pyrazinamide ([1]; ratio of MICs vs pyrazinamide (MIC 25.34 µM)),"IC50 at 48 h [2, 7] [µg/mL]",melting point [°C],MIC [3] [µM],"fold improvement in activity over compound 17 (CH3 replaced with CF3), Candida tropicalis ([3]; comparator compound 17) [fold]",MIC [4] [µM],"fold improvement in activity over compound 17 (CH3 replaced with CF3), Aspergillus niger ([4]; comparator compound 17) [fold]",IC50 [5] [µM],fold more antitubercular activity than the chalcones 14 and 16 [1] [fold],fold reduction in antitubercular activity compared with chalcone 15 ([1]; comparator compound 15) [fold],IC50 at 48 h ([2]; normal human cell line L02) [µg/mL],"fold better activity in comparison to fluconazole, Candida tropicalis [3] [fold]","fold improvement in MIC of dihydropyrazole over chalcone 16, Candida tropicalis ([3]; 31 (5.35 µM) vs 16 (14.12 µM)) [fold]","fold better activity in comparison to fluconazole, Aspergillus niger [4] [fold]","fold improvement in MIC of dihydropyrazole over chalcone 16, Aspergillus niger ([4]; 31 (5.35 µM) vs 16 (14.12 µM)) [fold]","Cytotoxic activity IC50, L02 [6] [µg/mL]"
"FC(F)(F)c1ccc(C2CC(c3ccc(Cl)c(Cl)c3)=NN2c2ccccc2)cc1 (stereo not shown) [Compound 24, 3-(3,4-dichlorophenyl)-1-phenyl-5-(4-trifluoromethylphenyl)-4,5-dihydro-1H-pyrazole]",3.67,sevenfold,> 75,125,9.18,4.6,9.18,4.6,257 ± 2,–,–,–,–,–,–,–,–
"Clc1ccc(C2=NN(c3ccccc3)C(c3ccc4c(c3)OCO4)C2)cc1Cl (stereo not shown) [Compound 25, 3-(3,4-dichlorophenyl)-1-phenyl-5-(benzo[d][1,3]dioxol-5-yl)-4,5-dihydro-1H-pyrazole]",60.8,–,> 75,212,19.4,–,19.4,–,131 ± 2,–,–,–,–,–,–,–,–
"Clc1ccc(C2=NN(c3ccccc3)C(c3ccccn3)C2)cc1Cl (stereo not shown) [Compound 26, 3-(3,4-dichlorophenyl)-1-phenyl-5-(pyridin-2-yl)-4,5-dihydro-1H-pyrazole]",67.9,–,> 75,191,21.7,–,21.7,–,271 ± 2,–,–,–,–,–,–,–,–
"Clc1ccc(C2=NN(c3ccccc3)C(c3cccnc3)C2)cc1Cl (stereo not shown) [Compound 27, 3-(3,4-dichlorophenyl)-1-phenyl-5-(pyridin-3-yl)-4,5-dihydro-1H-pyrazole]",67.9,–,> 75,184,21.7,–,21.7,–,211 ± 2,–,–,–,–,–,–,–,–
"Clc1ccc(C2=NN(c3ccccc3)C(c3ccncc3)C2)cc1Cl (stereo not shown) [Compound 28, 3-(3,4-dichlorophenyl)-1-phenyl-5-(pyridin-4-yl)-4,5-dihydro-1H-pyrazole]",67.9,–,> 75,214,21.7,–,21.7,–,173 ± 2,–,–,–,–,–,–,–,–
"Clc1ccc(C2=NN(c3ccccc3)C(c3ccco3)C2)cc1Cl (stereo not shown) [Compound 29, 3-(3,4-dichlorophenyl)-1-phenyl-5-(furan-2-yl)-4,5-dihydro-1H-pyrazole]",17.5,–,> 75,200,11.2,–,11.2,–,162 ± 2,2.6,–,–,–,–,–,–,–
"Clc1ccc(C2=NN(c3ccccc3)C(c3ccc[nH]3)C2)cc1Cl (stereo not shown) [Compound 30, 3-(3,4-dichlorophenyl)-1-phenyl-5-(1H-pyrrol-2-yl)-4,5-dihydro-1H-pyrazole]",70.2,–,> 75,171,44.9,–,44.9,–,84 ± 2,–,1.5,–,–,–,–,–,–
"Clc1ccc(C2=NN(c3ccccc3)C(c3cccs3)C2)cc1Cl (stereo not shown) [Compound 31, 3-(3,4-dichlorophenyl)-1-phenyl-5-(thiophen-2-yl)-4,5-dihydro-1H-pyrazole]",8.35,–,–,212,5.35,–,5.35,–,32 ± 1,2.6,–,> 75,3.7,2.6,4.9,2.6,–
"CN(Cc1cnc2nc(N)nc(N)c2n1)c1ccc(C(=O)N[C@@H](CCC(=O)O)C(=O)O)cc1 [Methotrexate, reference compound]",–,–,> 75,–,–,–,–,–,11 ± 1,–,–,–,–,–,–,–,>75
